Target: T1, CmPCYA (Cyanidioschyzon merolae, UniProt M1V4R9)
T1 construct: gene CYME_CMG110C; N-terminal GST-tag, pGEX-6P-1, co-expressed with pGro7 chaperones in E. coli BL21(DE3)
T1 sequence (M1V4R9 1-325): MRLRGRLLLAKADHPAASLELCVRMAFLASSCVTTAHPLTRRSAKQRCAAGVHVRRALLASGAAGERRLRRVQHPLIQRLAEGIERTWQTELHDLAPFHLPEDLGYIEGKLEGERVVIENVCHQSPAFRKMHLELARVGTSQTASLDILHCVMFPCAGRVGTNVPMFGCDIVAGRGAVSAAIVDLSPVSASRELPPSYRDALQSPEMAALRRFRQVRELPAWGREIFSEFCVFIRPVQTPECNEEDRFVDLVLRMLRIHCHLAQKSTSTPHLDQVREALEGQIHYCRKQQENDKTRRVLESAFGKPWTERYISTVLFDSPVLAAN
Assay: anaerobic bilin reductase assay, HPLC
Format: biochemical
Conditions: BV as substrate; PetF, FNR, NADPH-regenerating system; 20 °C

CC=C1C(=Cc2[nH]c(C=C3N=C(C=C4NC(=O)C(CC)=C4C)C(C)=C3CCC(=O)O)c(CCC(=O)O)c2C)NC(=O)C1C (stereo not shown) [PCB]
anaerobic bilin reductase assay, HPLC: catalyzing the reduction of BV to PCB (Fig. 7B: CmPCYA)
